Assay results: patent US12084436B2, “Heterocyclic compound” (Takeda Pharmaceutical Company Limited, priority 2019, dated 2024)

What follows are molecules tested against T1, HDAC6 enzyme (Homo sapiens, UniProt Q9UBN7) (assay: HDAC6 enzyme inhibitory assay (HDAC-Glo I/II Assay kit, luminescence)). Settings: 10 μM test compound; wells without enzyme = 100% inhibition; 10 µM.
T1 construct: prepared by transducing full length HDAC6 gene into Sf-9 insect cells; GST; purchased SignalChem; host or cells: Sf-9 insect cells
T1 sequence (Q9UBN7 1-1215): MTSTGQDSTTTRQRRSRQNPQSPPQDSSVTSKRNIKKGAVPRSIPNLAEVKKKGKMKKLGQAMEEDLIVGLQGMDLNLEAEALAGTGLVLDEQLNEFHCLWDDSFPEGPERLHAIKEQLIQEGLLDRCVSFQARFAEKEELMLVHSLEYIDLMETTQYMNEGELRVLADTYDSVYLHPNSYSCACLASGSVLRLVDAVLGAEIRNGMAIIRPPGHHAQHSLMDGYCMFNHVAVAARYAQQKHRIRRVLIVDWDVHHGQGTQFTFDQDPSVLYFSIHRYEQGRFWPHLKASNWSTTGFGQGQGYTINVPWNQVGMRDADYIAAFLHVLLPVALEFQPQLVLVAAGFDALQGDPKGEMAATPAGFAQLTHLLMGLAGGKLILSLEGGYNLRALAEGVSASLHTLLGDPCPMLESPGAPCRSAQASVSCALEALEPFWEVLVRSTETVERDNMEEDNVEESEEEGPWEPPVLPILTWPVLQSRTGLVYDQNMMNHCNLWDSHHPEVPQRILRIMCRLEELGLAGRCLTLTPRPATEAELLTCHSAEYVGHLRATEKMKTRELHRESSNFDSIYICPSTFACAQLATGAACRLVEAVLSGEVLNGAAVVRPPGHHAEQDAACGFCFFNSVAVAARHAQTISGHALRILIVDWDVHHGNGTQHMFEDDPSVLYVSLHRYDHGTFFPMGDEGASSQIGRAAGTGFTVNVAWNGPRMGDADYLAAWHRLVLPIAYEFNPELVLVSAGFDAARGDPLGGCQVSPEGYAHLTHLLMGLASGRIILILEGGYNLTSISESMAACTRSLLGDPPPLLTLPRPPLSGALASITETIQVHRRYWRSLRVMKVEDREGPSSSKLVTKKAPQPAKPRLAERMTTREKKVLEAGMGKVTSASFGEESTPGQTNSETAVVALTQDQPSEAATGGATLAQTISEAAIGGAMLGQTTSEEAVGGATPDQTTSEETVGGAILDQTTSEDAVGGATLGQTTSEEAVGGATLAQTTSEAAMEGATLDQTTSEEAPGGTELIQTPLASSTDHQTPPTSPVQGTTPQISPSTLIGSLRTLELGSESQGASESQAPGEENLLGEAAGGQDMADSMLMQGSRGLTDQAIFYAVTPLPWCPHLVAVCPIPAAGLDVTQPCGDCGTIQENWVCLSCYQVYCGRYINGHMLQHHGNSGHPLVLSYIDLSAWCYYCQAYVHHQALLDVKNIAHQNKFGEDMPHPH
Assay type: biochemical
Summary of the method: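 Full-length human HDAC6, GST-purified from Sf-9 cells, was preincubated with compound for 60 min at room temperature in Tris-HCl pH 7.5 buffer with glutathione and Tween-20. Substrate-developer was then added, and luminescence was read after 20 min at room temperature. Inhibition was expressed relative to no-enzyme wells, taken as 100% inhibition.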

Compound	HDAC6 inhibitory rate (%) (10 μM)
CN1C(=O)c2cc(-c3nnc(C(F)F)o3)ccc2CC1c1ccc(F)cc1 (single isomer, unassigned; isomer 2) [Example 42b, 7-[5-(difluoromethyl)-1,3,4-oxadiazol-2-yl]-3-(4-fluorophenyl)-2-methyl-3,4-dihydroisoquinolin-1(2H)-one (optical Isomer 2)]	93%

Same assay, conditions: 10 μM test compound; wells without enzyme = 100% inhibition; read-out: HDAC6 inhibitory rate (%) (10 μM)

Compound	inhibition at 10 µM
COCCOc1cccnc1-c1cc(F)cc(-c2nnc(C(F)F)o2)c1 [Example 13a, 2-{3-[5-(difluoromethyl)-1,3,4-oxadiazol-2-yl]-5-fluorophenyl}-3-(2-methoxyethoxy)pyridine]	92%
Cn1cc(Cn2ccnc2-c2cc(F)cc(-c3nnc(C(F)F)o3)c2)cn1 [Example 59a, 2-(difluoromethyl)-5-(3-fluoro-5-{1-[(1-methyl-1H-pyrazol-4-yl)methyl]-1H-imidazol-2-yl}phenyl)-1,3,4-oxadiazole]	99%
COC1CCCC(OC(=O)N(Cc2ccc(F)cc2)N2Cc3ccc(-c4nnc(C(F)F)o4)cc3C2=O)C1 (stereo not drawn) [Example 24c, 3-methoxycyclohexyl {6-[5-(difluoromethyl)-1,3,4-oxadiazol-2-yl]-1-oxo-1,3-dihydro-2H-isoindol-2-yl}[(4-fluorophenyl)methyl]carbamate]	100%
O=C1NN(c2ccc(F)c(Cl)c2)Cc2ccc(-c3nnc(C(F)F)o3)cc21 [Example 31b, 3-(3-chloro-4-fluorophenyl)-7-[5-(difluoromethyl)-1,3,4-oxadiazol-2-yl]-3,4-dihydrophthalazin-1(2H)-one]	100%
CN(CC1CC(F)(F)C1)N1Cc2ccc(-c3nnc(C(F)F)o3)cc2C1=O [Example 64c, 2-{[(3,3-difluorocyclobutyl)methyl] (methyl)amino}-6-[5-(difluoromethyl)-1,3,4-oxadiazol-2-yl]-2,3-dihydro-1H-isoindol-1-one]	99%
N#Cc1ccc(Cn2ccnc2-c2cc(-c3nnc(C(F)F)o3)ccn2)cc1F [Example 75a, 4-[(2-{4-[5-(difluoromethyl)-1,3,4-oxadiazol-2-yl]pyridin-2-yl}-1H-imidazol-1-yl)methyl]-2-fluorobenzonitrile]	99%
O=C1NN(c2ccc(F)c(F)c2)Cc2ncc(-c3nnc(C(F)F)o3)cc21 [Example 34b, 3-[5-(difluoromethyl)-1,3,4-oxadiazol-2-yl]-7-(3,4-difluorophenyl)-7,8-dihydropyrido[2,3-d]pyridazin-5(6H)-one]	100%
Fc1cc(-c2nnc(C(F)F)o2)cc(-c2nccn2Cc2ccncc2)c1 [Example 24a, 4-[(2-{3-[5-(difluoromethyl)-1,3,4-oxadiazol-2-yl]-5-fluorophenyl}-1H-imidazol-1-yl)methyl]pyridine]	98%
CN1C(=O)c2cc(-c3nnc(C(F)F)o3)ccc2OC1(C)c1ccccn1 (stereo not drawn) [Example 12b, 6-[5-(difluoromethyl)-1,3,4-oxadiazol-2-yl]-2,3-dimethyl-2-(pyridin-2-yl)-2,3-dihydro-4H-1,3-benzoxazin-4-one]	98%
CC(C)CN(C(=O)OC(C)(C)C)N1Cc2ccc(-c3nnc(C(F)F)o3)cc2C1=O [Example 5c, tert-butyl {6-[5-(difluoromethyl)-1,3,4-oxadiazol-2-yl]-1-oxo-1,3-dihydro-2H-isoindol-2-yl}(2-methylpropyl)carbamate]	99%
O=C1c2cc(-c3nnc(C(F)F)o3)ccc2CN1N(CC1CCOCC1)CC1CCOCC1 [Example 18c, 2-{bis[(oxan-4-yl)methyl]amino}-6-[5-(difluoromethyl)-1,3,4-oxadiazol-2-yl]-2,3-dihydro-1H-isoindol-1-one]	99%
CN1C(=O)c2cc(-c3nnc(C(F)F)o3)ccc2CC1c1ccc(F)cc1 (single isomer, unassigned; isomer 1) [Example 41b, 7-[5-(difluoromethyl)-1,3,4-oxadiazol-2-yl]-3-(4-fluorophenyl)-2-methyl-3,4-dihydroisoquinolin-1(2H)-one (Optical Isomer 1)]	99%
Fc1cc(-c2nnc(C(F)F)o2)cc(-c2nccn2Cc2ccc(F)c(F)c2)c1 [Example 45a, 2-(difluoromethyl)-5-(3-{1-[(3,4-difluorophenyl)methyl]-1H-imidazol-2-yl}-5-fluorophenyl)-1,3,4-oxadiazole]	100%
CN1C(=O)c2cc(-c3nnc(C(F)F)o3)ccc2CC1(C)c1ccc(F)cc1 (stereo not drawn) [Example 13b, 7-[5-(difluoromethyl)-1,3,4-oxadiazol-2-yl]-3-(4-fluorophenyl)-2,3-dimethyl-3,4-dihydroisoquinolin-1(2H)-one]	99%
FC(F)c1nnc(-c2ccnc(-c3nc(Cl)cn3Cc3ccccn3)c2)o1 [Example 39a, 2-{4-chloro-1-[(pyridin-2-yl)methyl]-1H-imidazol-2-yl}-4-[5-(difluoromethyl)-1,3,4-oxadiazol-2-yl]pyridine]	98%
COc1cc(CN(C)N2Cc3ccc(-c4nnc(C(F)F)o4)cc3C2=O)cc(OC)c1 [Example 63c, 6-[5-(difluoromethyl)-1,3,4-oxadiazol-2-yl]-2-{[(3,5-dimethoxyphenyl)methyl](methyl)amino}-2,3-dihydro-1H-isoindol-1-one]	101%
CN(Cc1cncc(Cl)c1)N1Cc2ncc(-c3nnc(C(F)F)o3)cc2C1=O [Example 70c, 6-{[(5-chloropyridin-3-yl)methyl](methyl)amino}-3-[5-(difluoromethyl)-1,3,4-oxadiazol-2-yl]-6,7-dihydro-5H-pyrrolo[3,4-b]pyridin-5-one]	100%
Cc1cccc(Cn2ccnc2-c2cc(-c3nnc(C(F)F)o3)ccn2)c1 [Example 83a, 4-[5-(difluoromethyl)-1,3,4-oxadiazol-2-yl]-2-{1-[(3-methylphenyl)methyl]-1H-imidazol-2-yl}pyridine]	100%
COC(=O)N(Cc1ccc(F)cc1)N1Cc2ccc(-c3nnc(C(F)F)o3)cc2C1=O [Example 1c, methyl {6-[5-(difluoromethyl)-1,3,4-oxadiazol-2-yl]-1-oxo-1,3-dihydro-2H-isoindol-2-yl}[(4-fluorophenyl)methyl]carbamate]	99%
O=C1c2cc(-c3nnc(C(F)F)o3)ccc2CN1N(Cc1ccc(F)cc1)Cc1ccc(F)cc1 [Example 7c, 2-{bis[(4-fluorophenyl)methyl]amino}-6-[5-(difluoromethyl)-1,3,4-oxadiazol-2-yl]-2,3-dihydro-1H-isoindol-1-one]	100%
Fc1ccc(Cn2ccnc2-c2cc(-c3nnc(C(F)F)o3)ccn2)nc1 [Example 76a, 4-[5-(difluoromethyl)-1,3,4-oxadiazol-2-yl]-2-{1-[(5-fluoropyridin-2-yl)methyl]-1H-imidazol-2-yl}pyridine]	100%
Cc1cc(Cn2ccnc2-c2cc(F)cc(-c3nnc(C(F)F)o3)c2)on1 [Example 62a, 2-(difluoromethyl)-5-(3-fluoro-5-{1-[(3-methyl-1,2-oxazol-5-yl)methyl]-1H-imidazol-2-yl}phenyl)-1,3,4-oxadiazole]	99%
Fc1cc(-c2nnc(C(F)F)o2)cc(-c2nccn2Cc2cccnc2)c1 [Example 49a]	99%
O=C1OCC(Cc2ccccn2)N1c1cc(F)cc(-c2nnc(C(F)F)o2)c1 (stereo not drawn) [Example 41a, 3-{3-[5-(difluoromethyl)-1,3,4-oxadiazol-2-yl)-5-fluorophenyl}-4-[(pyridin-2-yl)methyl]-1,3-oxazolidin-2-one]	21%
O=C(OCC(F)F)N(Cc1ccc(F)cc1)N1Cc2ccc(-c3nnc(C(F)F)o3)cc2C1=O [Example 16c, 2,2-difluoroethyl {6-[5-(difluoromethyl)-1,3,4-oxadiazol-2-yl]-1-oxo-1,3-dihydro-2H-isoindol-2-yl}[(4-fluorophenyl)methyl]carbamate]	100%
CN(CC1CCC(F)(F)CC1)N1Cc2ccc(-c3nnc(C(F)F)o3)cc2C1=O [Example 62c, 2-{[(4,4-difluorocyclohexyl)methyl](methyl)amino}-6-[5-(difluoromethyl)-1,3,4-oxadiazol-2-yl]-2,3-dihydro-1H-isoindol-1-one]	100%
